Laboratory results reported in ChEMBL document CHEMBL1158188, “Natural polyphenols (vegetable tannins) as drugs: possible modes of action” (J Nat Prod, 1996).

How the values were obtained:
[1] = Binding affinity to bradykinin
[2] = Binding affinity to desarginyl(1)bradykinin
[3] = Binding affinity to desarginyl(9)bradykinin
[4] = Binding affinity to bradykinin peptide Arg-Pro-Pro-Gly-Phe
[5] = Antioxidant activity assessed by superoxide anion scavenging assay; assay type: functional
[6] = Antioxidant activity assessed by hydroxyl radical scavenging assay; assay type: functional
[7] = Antioxidant activity assessed by singlet oxygen scavenging assay; assay type: functional
[8] = Octanol-water partition coefficient of the compound; assay type: physicochemical; conditions: read-out: log KOW

| SMILES | Ka [1] [M⁻¹] | IC50 [5] [µM] | IC50 [6] [µM] | IC50 [7] [µM] | further results |
| --- | --- | --- | --- | --- | --- |
| O=C(OC[C@H]1O[C@@H](OC(=O)c2cc(O)c(O)c(O)c2)[C@H](O)[C@@H](OC(=O)c2cc(O)c(O)c(O)c2)[C@@H]1O)c1cc(O)c(O)c(O)c1 | 4.4 |  |  |  |  |
| O=C(OC[C@H]1O[C@@H](OC(=O)c2cc(O)c(O)c(O)c2)[C@H](OC(=O)c2cc(O)c(O)c(O)c2)[C@@H](O)[C@@H]1OC(=O)c1cc(O)c(O)c(O)c1)c1cc(O)c(O)c(O)c1 | 20.5 |  |  |  |  |
| O=C(OC[C@H]1O[C@@H](OC(=O)c2cc(O)c(O)c(O)c2)[C@H](OC(=O)c2cc(O)c(O)c(O)c2)[C@@H](OC(=O)c2cc(O)c(O)c(O)c2)[C@@H]1OC(=O)c1cc(O)c(O)c(O)c1)c1cc(O)c(O)c(O)c1 | 33.7 |  |  |  | Ka [2]: 20 M⁻¹; Ka [3]: 20.4 M⁻¹; Ka [4]: 13 M⁻¹ |
| Oc1cc(O)c2c(c1)O[C@H](c1ccc(O)c(O)c1)[C@H](O)[C@H]2c1c(O)cc(O)c2c1O[C@H](c1ccc(O)c(O)c1)[C@H](O)C2 | 8.2 |  |  |  |  |
| O=C1O[C@H]([C@@H](O)CO)C(O)=C1O [ASCORBIC ACID] |  | 23.3 | 18.8 | 120 |  |
| O=C1OC[C@H]2OC(=O)c3cc(O)c(O)c(O)c3-c3c(O)c(O)c(O)c4c3C(=O)O[C@H]([C@H]3OC(=O)c5c-4c(O)c(O)c(O)c5[C@H]3O)[C@@H]2OC(=O)c2cc(O)c(O)c(O)c2-c2c1cc(O)c(O)c2O [CASTALAGIN] |  |  |  |  | logP [8]: 0.1 |
| O=C(O)c1cc(O)c(O)c(O)c1 [GALLIC ACID] |  | 1.01 | 78 | 69.8 |  |
| O=C(OC[C@@H]1OC(O)[C@](O)(COC(=O)c2cc(O)c(O)c(O)c2)[C@H]1O)c1cc(O)c(O)c(O)c1 (stereo partly specified) [HAMAMELITANIN] |  | 1.31 | 5.46 | 45.5 |  |
| CCCOC(=O)c1cc(O)c(O)c(O)c1 [PROPYL GALLATE] |  | 1.41 | 86.5 | 66.7 |  |
| O=C1OCC2OC(=O)c3cc(O)c(O)c(O)c3-c3c(O)c(O)c(O)c4c3C(=O)OC(C2OC(=O)c2cc(O)c(O)c(O)c2-c2c1cc(O)c(O)c2O)C1OC(=O)c2c-4c(O)c(O)c(O)c2C1O (stereo unspecified) [VESCALAGIN] |  |  |  |  | logP [8]: 0.1 |
